Test results: PubChem BioAssay (NCI)
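Five compound concentrations were applied to cells in 96-well plates for 48 hours; endpoints were derived by simple linear interpolation of the resulting dose-response curve. TGI marks complete inhibition of growth.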

System: OVCAR-3 ovarian
Assay: NCI anticancer screen, dose series, 48 h

With `COC12OCCN(C)C1=CC(=O)C1=NNC(C)C12` (configuration not stated) the TGI was greater than 100 µM.

System: A549 NSCLC
Assay: NCI anticancer screen, dose series, 48 h

Point of comparison: `Cn1c2ccccc2c2ncc3[nH]c4ccccc4c3c21`, TGI 49.6 µM. Against it:
- COc1ccc(/C=C(\C(C)=O)C(=O)Nc2ccccc2)cc1 — higher, > 100 µM
- COc1ccc(/C(Cl)=C(\C=O)c2ccc(OC)cc2)cc1 — higher, > 100 µM
- Cc1nn(C(=O)CC(=O)Nc2ccc(Cl)cc2)c(C)c1N=Nc1ccccc1C(=O)O — higher, > 100 µM
- Cc1cccc2c1Sc1ccccc1C2NC(=O)CCN(C)C (configuration not stated) — higher, > 100 µM
- CC(Oc1ccc(OCC2CCCCC2)cc1)C(=O)OCC(=O)c1ccc(-c2ccccc2)cc1 (configuration not stated) — higher, > 100 µM
- O=[N+]([O-])c1ccc(-c2cnc3ccccn23)cc1 — higher, > 100 µM
- COC12OCCN(C)C1=CC(=O)C1=NNC(C)C12 (configuration not stated) — higher, > 100 µM

System: HOP-92 NSCLC
Assay: NCI anticancer screen, dose series, 48 h

Point of comparison: `Cn1c2ccccc2c2ncc3[nH]c4ccccc4c3c21`, TGI 56.8 µM. Against it:
- COc1ccc(/C=C(\C(C)=O)C(=O)Nc2ccccc2)cc1 — higher, > 100 µM
- COC12OCCN(C)C1=CC(=O)C1=NNC(C)C12 (configuration not stated) — higher, > 100 µM

System: NCI-H522 lung
Assay: NCI anticancer screen, dose series, 48 h

Point of comparison: `Cn1c2ccccc2c2ncc3[nH]c4ccccc4c3c21`, TGI 33.2 µM. Against it:
- COc1ccc(/C=C(\C(C)=O)C(=O)Nc2ccccc2)cc1 — higher, > 100 µM
- COc1ccc(/C(Cl)=C(\C=O)c2ccc(OC)cc2)cc1 — higher, > 100 µM
- Cc1nn(C(=O)CC(=O)Nc2ccc(Cl)cc2)c(C)c1N=Nc1ccccc1C(=O)O — higher, > 100 µM
- CC(Oc1ccc(OCC2CCCCC2)cc1)C(=O)OCC(=O)c1ccc(-c2ccccc2)cc1 (configuration not stated) — higher, > 100 µM
- O=[N+]([O-])c1ccc(-c2cnc3ccccn23)cc1 — higher, > 100 µM
- COC12OCCN(C)C1=CC(=O)C1=NNC(C)C12 (configuration not stated) — higher, > 100 µM

System: COLO 205 colon
Assay: NCI anticancer screen, dose series, 48 h

Point of comparison: `Cn1c2ccccc2c2ncc3[nH]c4ccccc4c3c21`, TGI 39.1 µM. Against it:
- Cc1nn(C(=O)CC(=O)Nc2ccc(Cl)cc2)c(C)c1N=Nc1ccccc1C(=O)O — higher, > 100 µM
- Cc1cccc2c1Sc1ccccc1C2NC(=O)CCN(C)C (configuration not stated) — higher, > 100 µM
- O=[N+]([O-])c1ccc(-c2cnc3ccccn23)cc1 — higher, > 100 µM
- COC12OCCN(C)C1=CC(=O)C1=NNC(C)C12 (configuration not stated) — higher, > 100 µM

System: XF 498 CNS
Assay: NCI anticancer screen, dose series, 48 h

Point of comparison: `Cn1c2ccccc2c2ncc3[nH]c4ccccc4c3c21`, TGI 31.8 µM. Against it:
- CC(Oc1ccc(OCC2CCCCC2)cc1)C(=O)OCC(=O)c1ccc(-c2ccccc2)cc1 (configuration not stated) — higher, > 100 µM
- O=[N+]([O-])c1ccc(-c2cnc3ccccn23)cc1 — higher, > 100 µM

System: SF-295 CNS
Assay: NCI anticancer screen, dose series, 48 h

Point of comparison: `Cn1c2ccccc2c2ncc3[nH]c4ccccc4c3c21`, TGI 47.9 µM. Against it:
- COc1ccc(/C=C(\C(C)=O)C(=O)Nc2ccccc2)cc1 — higher, > 100 µM
- COc1ccc(/C(Cl)=C(\C=O)c2ccc(OC)cc2)cc1 — higher, > 100 µM
- Cc1nn(C(=O)CC(=O)Nc2ccc(Cl)cc2)c(C)c1N=Nc1ccccc1C(=O)O — higher, > 100 µM
- CC(Oc1ccc(OCC2CCCCC2)cc1)C(=O)OCC(=O)c1ccc(-c2ccccc2)cc1 (configuration not stated) — higher, > 100 µM
- O=[N+]([O-])c1ccc(-c2cnc3ccccn23)cc1 — higher, > 100 µM
- COC12OCCN(C)C1=CC(=O)C1=NNC(C)C12 (configuration not stated) — higher, > 100 µM

System: SNB-19 CNS
Assay: NCI anticancer screen, dose series, 48 h

`Cn1c2ccccc2c2ncc3[nH]c4ccccc4c3c21` and `O=[N+]([O-])c1ccc(-c2cnc3ccccn23)cc1` cannot be ordered by TGI: greater than 100 µM for the first, greater than 100 µM for the second.

`COc1ccc(/C=C(\C(C)=O)C(=O)Nc2ccccc2)cc1` and `COc1ccc(/C(Cl)=C(\C=O)c2ccc(OC)cc2)cc1` cannot be ordered by TGI: greater than 100 µM for the first, greater than 100 µM for the second.

`Cc1nn(C(=O)CC(=O)Nc2ccc(Cl)cc2)c(C)c1N=Nc1ccccc1C(=O)O` and `Cc1cccc2c1Sc1ccccc1C2NC(=O)CCN(C)C` (configuration not stated) cannot be ordered by TGI: greater than 100 µM for the first, greater than 100 µM for the second.

`CC(Oc1ccc(OCC2CCCCC2)cc1)C(=O)OCC(=O)c1ccc(-c2ccccc2)cc1` (configuration not stated) gave a TGI greater than 100 µM.

System: HOP-18 NSCLC
Assay: NCI anticancer screen, dose series, 48 h

`COc1ccc(/C=C(\C(C)=O)C(=O)Nc2ccccc2)cc1` and `COc1ccc(/C(Cl)=C(\C=O)c2ccc(OC)cc2)cc1` cannot be ordered by TGI: greater than 100 µM for the first, greater than 100 µM for the second.

`CC(Oc1ccc(OCC2CCCCC2)cc1)C(=O)OCC(=O)c1ccc(-c2ccccc2)cc1` (configuration not stated) and `COC12OCCN(C)C1=CC(=O)C1=NNC(C)C12` (configuration not stated) cannot be ordered by TGI: greater than 100 µM for the first, greater than 100 µM for the second.

System: KM20L2 colon
Assay: NCI anticancer screen, dose series, 48 h

Point of comparison: `Cn1c2ccccc2c2ncc3[nH]c4ccccc4c3c21`, TGI 36.6 µM. Against it:
- COc1ccc(/C(Cl)=C(\C=O)c2ccc(OC)cc2)cc1 — higher, > 100 µM
- Cc1nn(C(=O)CC(=O)Nc2ccc(Cl)cc2)c(C)c1N=Nc1ccccc1C(=O)O — higher, > 100 µM
- Cc1cccc2c1Sc1ccccc1C2NC(=O)CCN(C)C (configuration not stated) — higher, > 100 µM
- O=[N+]([O-])c1ccc(-c2cnc3ccccn23)cc1 — higher, > 100 µM

System: NCI-H226 lung
Assay: NCI anticancer screen, dose series, 48 h

Point of comparison: `Cn1c2ccccc2c2ncc3[nH]c4ccccc4c3c21`, TGI 51.8 µM. Against it:
- COc1ccc(/C=C(\C(C)=O)C(=O)Nc2ccccc2)cc1 — higher, > 100 µM
- COc1ccc(/C(Cl)=C(\C=O)c2ccc(OC)cc2)cc1 — higher, > 100 µM
- Cc1cccc2c1Sc1ccccc1C2NC(=O)CCN(C)C (configuration not stated) — higher, > 100 µM
- CC(Oc1ccc(OCC2CCCCC2)cc1)C(=O)OCC(=O)c1ccc(-c2ccccc2)cc1 (configuration not stated) — higher, > 100 µM
- O=[N+]([O-])c1ccc(-c2cnc3ccccn23)cc1 — higher, > 100 µM
- COC12OCCN(C)C1=CC(=O)C1=NNC(C)C12 (configuration not stated) — higher, > 100 µM

System: SNB-75 CNS
Assay: NCI anticancer screen, dose series, 48 h

Point of comparison: `O=[N+]([O-])c1ccc(-c2cnc3ccccn23)cc1`, TGI 92 µM. Against it:
- Cn1c2ccccc2c2ncc3[nH]c4ccccc4c3c21 — 2.6-fold lower, 35.6 µM
- COc1ccc(/C(Cl)=C(\C=O)c2ccc(OC)cc2)cc1 — higher, > 100 µM
- Cc1nn(C(=O)CC(=O)Nc2ccc(Cl)cc2)c(C)c1N=Nc1ccccc1C(=O)O — higher, > 100 µM
- Cc1cccc2c1Sc1ccccc1C2NC(=O)CCN(C)C (configuration not stated) — higher, > 100 µM
- CC(Oc1ccc(OCC2CCCCC2)cc1)C(=O)OCC(=O)c1ccc(-c2ccccc2)cc1 (configuration not stated) — higher, > 100 µM
- COC12OCCN(C)C1=CC(=O)C1=NNC(C)C12 (configuration not stated) — higher, > 100 µM

System: SF-268 CNS
Assay: NCI anticancer screen, dose series, 48 h

Point of comparison: `Cn1c2ccccc2c2ncc3[nH]c4ccccc4c3c21`, TGI 61.8 µM. Against it:
- COc1ccc(/C=C(\C(C)=O)C(=O)Nc2ccccc2)cc1 — higher, > 100 µM
- COc1ccc(/C(Cl)=C(\C=O)c2ccc(OC)cc2)cc1 — higher, > 100 µM
- Cc1nn(C(=O)CC(=O)Nc2ccc(Cl)cc2)c(C)c1N=Nc1ccccc1C(=O)O — higher, > 100 µM
- Cc1cccc2c1Sc1ccccc1C2NC(=O)CCN(C)C (configuration not stated) — higher, > 100 µM
- CC(Oc1ccc(OCC2CCCCC2)cc1)C(=O)OCC(=O)c1ccc(-c2ccccc2)cc1 (configuration not stated) — higher, > 100 µM
- O=[N+]([O-])c1ccc(-c2cnc3ccccn23)cc1 — higher, > 100 µM

System: CAKI-1 renal
Assay: NCI anticancer screen, dose series, 48 h

Point of comparison: `Cn1c2ccccc2c2ncc3[nH]c4ccccc4c3c21`, TGI 68.8 µM. Against it:
- COc1ccc(/C=C(\C(C)=O)C(=O)Nc2ccccc2)cc1 — higher, > 100 µM
- COc1ccc(/C(Cl)=C(\C=O)c2ccc(OC)cc2)cc1 — higher, > 100 µM
- Cc1nn(C(=O)CC(=O)Nc2ccc(Cl)cc2)c(C)c1N=Nc1ccccc1C(=O)O — higher, > 100 µM
- O=[N+]([O-])c1ccc(-c2cnc3ccccn23)cc1 — higher, > 100 µM
- COC12OCCN(C)C1=CC(=O)C1=NNC(C)C12 (configuration not stated) — higher, > 100 µM

System: KM12 colon
Assay: NCI anticancer screen, dose series, 48 h

Point of comparison: `Cn1c2ccccc2c2ncc3[nH]c4ccccc4c3c21`, TGI 33.9 µM. Against it:
- COc1ccc(/C=C(\C(C)=O)C(=O)Nc2ccccc2)cc1 — higher, > 100 µM
- Cc1nn(C(=O)CC(=O)Nc2ccc(Cl)cc2)c(C)c1N=Nc1ccccc1C(=O)O — higher, > 100 µM
- CC(Oc1ccc(OCC2CCCCC2)cc1)C(=O)OCC(=O)c1ccc(-c2ccccc2)cc1 (configuration not stated) — higher, > 100 µM
- O=[N+]([O-])c1ccc(-c2cnc3ccccn23)cc1 — higher, > 100 µM
- COC12OCCN(C)C1=CC(=O)C1=NNC(C)C12 (configuration not stated) — higher, > 100 µM

System: CCRF-CEM leukemia
Assay: NCI anticancer screen, dose series, 48 h

`Cn1c2ccccc2c2ncc3[nH]c4ccccc4c3c21` and `O=[N+]([O-])c1ccc(-c2cnc3ccccn23)cc1` cannot be ordered by TGI: greater than 100 µM for the first, greater than 100 µM for the second.

`COc1ccc(/C=C(\C(C)=O)C(=O)Nc2ccccc2)cc1` and `COc1ccc(/C(Cl)=C(\C=O)c2ccc(OC)cc2)cc1` cannot be ordered by TGI: greater than 100 µM for the first, greater than 100 µM for the second.

`Cc1nn(C(=O)CC(=O)Nc2ccc(Cl)cc2)c(C)c1N=Nc1ccccc1C(=O)O` and `Cc1cccc2c1Sc1ccccc1C2NC(=O)CCN(C)C` (configuration not stated) cannot be ordered by TGI: greater than 100 µM for the first, greater than 100 µM for the second.

`CC(Oc1ccc(OCC2CCCCC2)cc1)C(=O)OCC(=O)c1ccc(-c2ccccc2)cc1` (configuration not stated) and `COC12OCCN(C)C1=CC(=O)C1=NNC(C)C12` (configuration not stated) cannot be ordered by TGI: greater than 100 µM for the first, greater than 100 µM for the second.

System: SNB-78 CNS
Assay: NCI anticancer screen, dose series, 48 h

Point of comparison: `Cn1c2ccccc2c2ncc3[nH]c4ccccc4c3c21`, TGI 57.6 µM. Against it:
- COc1ccc(/C=C(\C(C)=O)C(=O)Nc2ccccc2)cc1 — higher, > 100 µM
- COc1ccc(/C(Cl)=C(\C=O)c2ccc(OC)cc2)cc1 — higher, > 100 µM
- Cc1nn(C(=O)CC(=O)Nc2ccc(Cl)cc2)c(C)c1N=Nc1ccccc1C(=O)O — higher, > 100 µM
- Cc1cccc2c1Sc1ccccc1C2NC(=O)CCN(C)C (configuration not stated) — higher, > 100 µM
- CC(Oc1ccc(OCC2CCCCC2)cc1)C(=O)OCC(=O)c1ccc(-c2ccccc2)cc1 (configuration not stated) — higher, > 100 µM
- O=[N+]([O-])c1ccc(-c2cnc3ccccn23)cc1 — higher, > 100 µM
- COC12OCCN(C)C1=CC(=O)C1=NNC(C)C12 (configuration not stated) — higher, > 100 µM

System: 786-0 renal
Assay: NCI anticancer screen, dose series, 48 h

`Cn1c2ccccc2c2ncc3[nH]c4ccccc4c3c21` and `COc1ccc(/C=C(\C(C)=O)C(=O)Nc2ccccc2)cc1` cannot be ordered by TGI: greater than 100 µM for the first, greater than 100 µM for the second.

In the case of `Cc1nn(C(=O)CC(=O)Nc2ccc(Cl)cc2)c(C)c1N=Nc1ccccc1C(=O)O`, the TGI is reported as greater than 100 µM.
